Among the data in patent US8304447B2, “2-acylaminopropoanol-type glucosylceramide synthase inhibitors” (Genzyme Corporation, priority 2007, dated 2012) are IC50 values, retold here.

Each structure is given as a SMILES string.

The assay deals with GM3. Put plainly: GM3 Elisa assay. It is filed as cell-based. As to conditions: 48 h, Table 1; B16-FO cells, 2 days incubation; read-out: IC50_uM_Mean. The protocol: B16-FO cells from ATCC (American Tissue Culture Collection) were grown in DMEM media (ATCC) with 10% Fetal Bovine Serum (Hyclone) and Pen/Step/Glutamine (Biowhittaker). 4000 cells per well were plated on collagen coated plates (BD) and allowed to attach for 6 hours in an incubator (37 degrees, 5% CO2). After 6 hours the compounds and controls were added to the wells, the plates mixed and returned to the incubator for 2 days. Day of assay the cells were fixed for 20 minutes with 1% formaldehyde and then washed with Tris Buffered Saline (TBS) 3 times, 150 μl of TBS was left in the wells and 50 μl of goat serum (Invitrogen) was added, the plates mixed and incubated for 1 hour at room temperature. The plates were flicked and the cells incubated with the monoclonal Antibody to GM3 (NeuAc) (Cosmo) for 45 minutes as room temperature. The plates were then washed 3 times with TBS, leaving 150 μl of TBS in the wells and Peroxidase AffinPure F (ab′) 2 frag Gt Anti-mouse IgM, μ Chain Specific (Jackson Immuno Research) was added in 50 μl, the plates mixed and incubated for 45 minutes at room temperature. The plates were washed 3 times with TBS, flicked and blotted and 100 μl of Quantablu (Pierce) was added to the wells and incubated for 1 hour then read on a Fluorometer at Ex 325 and Em 420. The data was then analyzed using standard programs.
On to `O=C(CCOc1ccc(F)cc1)N[C@H](CN1CCCC1)[C@H](O)c1ccc2c(c1)OCCO2` [Compound 58, N-((1R,2R)-1-(2,3-dihydrobenzo[β][1,4]dioxin-6-yl)-1-hydroxy-3-(pyrrolidin-1-yl)propan-2-yl)-3-(4-fluorophenoxy)propanamide], for which the IC50 lay within 100 to 1000 nM.

With `Cc1ccc(OCCC(=O)N[C@H](CN2CCCC2)[C@H](O)c2ccc3c(c2)OCCO3)cc1` [Compound 59, N-((1R,2R)-1-(2,3-dihydrobenzo[β][1,4]dioxin-6-yl)-1-hydroxy-3-(pyrrolidin-1-yl)propan-2-yl)-3-(p-tolyloxy)propanamide], the IC50 is at most 100 nM.

`O=C(CCOc1ccccc1F)N[C@H](CN1CCCC1)[C@H](O)c1ccc2c(c1)OCCO2` [Compound 60, N-((1R,2R)-1-(2,3-dihydrobenzo[β][1,4]dioxin-6-yl)-1-hydroxy-3-(pyrrolidin-1-yl)propan-2-yl)-3-(2-fluorophenoxy)propanamide]: the IC50 was at most 100 nM.

On to `COc1ccc(OCCC(=O)N[C@H](CN2CCCC2)[C@H](O)c2ccc3c(c2)OCCO3)cc1` [Compound 61, N-((1R,2R)-1-(2,3-dihydrobenzo[β][1,4]dioxin-6-yl)-1-hydroxy-3-(pyrrolidin-1-yl)propan-2-yl)-3-(4-methoxyphenoxy)propanamide], for which the IC50 is at most 100 nM.

For `COc1cccc(-c2ccc(CC(=O)N[C@H](CN3CCCC3)[C@H](O)c3ccc4c(c3)OCCO4)cc2)c1` [Compound 63, N-((1R,2R)-1-(2,3-dihydrobenzo[β][1,4]dioxin-6-yl)-1-hydroxy-3-(pyrrolidin-1-yl)propan-2-yl)-2-(3 methoxybiphenyl-4-yl)acetamide], the IC50 was at most 100 nM.

As to `O=C(Cc1ccc(-c2cccc(Cl)c2)cc1)N[C@@H](CN1CCCC1)[C@@H](O)c1ccc2c(c1)OCCO2` [Compound 65, 2-(3′-chlorobiphenyl-4-yl)-N-((1R,2R)-1-(2,3-dihydrobenzo[β][1,4]dioxin-6-yl)-1-hydroxy-3-(pyrrolidin-1-yl)propan-2-yl)acetamide], the IC50 was at most 100 nM.

For `O=C(Nc1cccc(C(F)(F)F)c1)N[C@H](CN1CCCC1)[C@H](O)c1ccc2c(c1)OCCO2` [Compound 68, 1-((1R,2R)-1-(2,3-dihydrobenzo[β][1,4]dioxin-6-yl)-1-hydroxy-3-(pyrrolidin-1-yl)propan-2-yl)-3-(3-(trifluoromethyl)phenyl)urea], the IC50 fell in the range of 100 to 1000 nM.

In the case of `O=C(Nc1ccc2ccccc2c1)N[C@H](CN1CCCC1)[C@H](O)c1ccc2c(c1)OCCO2` [Compound 69, 1-((1R,2R)-1-(2,3-dihydrobenzo[β][1,4]dioxin-6-yl)-1-hydroxy-3-(pyrrolidin-1-yl)propan-2-yl)-3-(naphthalen-2-yl)urea], the IC50 is 100 to 1000 nM.

As to `O=C(Nc1ccc(-c2ccccc2)cc1)N[C@H](CN1CCCC1)[C@H](O)c1ccc2c(c1)OCCO2` [Compound 70, 1-(biphenyl-4-yl)-3-((1R,2R)-1-(2,3-dihydrobenzo[β][1,4]dioxin-6-yl)-1-hydroxy-3-(pyrrolidin-1-yl)propan-2-yl)urea], the IC50 is at most 100 nM.

On to `C[C@H](NC(=O)N[C@H](CN1CCCC1)[C@H](O)c1ccc2c(c1)OCCO2)c1cccc2ccccc12` [Compound 71, 1-((1R,2R)-1-(2,3-dihydrobenzo [β][1,4]dioxin-6-yl)-1-hydroxy-3-(pyrrolidin-1-yl)propan-2-yl)-3-((S)-1-(naphthalen-1-yl)ethyl)urea], for which the IC50 lay within 100 to 1000 nM.

Regarding `COc1cccc(CNC(=O)N[C@H](CN2CCCC2)[C@H](O)c2ccc3c(c2)OCCO3)c1` [Compound 80, 1-((1R,2R)-1-(2,3-dihydrobenzo[β][1,4]dioxin-6-yl)-1-hydroxy-3-(pyrrolidin-1-yl)propan-2-yl)-3-(3-methoxybenzyl)urea], the IC50 was 100 to 1000 nM.

Turning to `O=C(Nc1ccc(C(F)(F)F)cc1)N[C@H](CN1CCCC1)[C@H](O)c1ccc2c(c1)OCCO2` [Compound 81, 1-((1R,2R)-1-(2,3-dihydrobenzo[β][1,4]dioxin-6-yl)-1-hydroxy-3-(pyrrolidin-1-yl)propan-2-yl)-3-(4-(trifluoromethyl)phenyl)urea], the IC50 lay within 100 to 1000 nM.

Take `O=C(Nc1ccc(OC(F)(F)F)cc1)N[C@H](CN1CCCC1)[C@H](O)c1ccc2c(c1)OCCO2` [Compound 82, 1-((1R,2R)-1-(2,3-dihydrobenzo[β][1,4]dioxin-6-yl)-1-hydroxy-3-(pyrrolidin-1-yl)propan-2-yl)-3-(4-(trifluoromethoxy)phenyl)urea]: the IC50 is at most 100 nM.

As to `O=C(COc1ccc(Cl)cc1)N[C@H](CN1CCCC1)[C@H](O)c1ccc2c(c1)OCCO2` [Compound 83, 2-(4-chlorophenoxy)-N-((1R,2R)-1-(2,3-dihydrobenzo[β][1,4]dioxin-6-yl)-1-hydroxy-3-(pyrrolidin-1-yl)propan-2-yl)acetamide], the IC50 is at most 100 nM.

In the case of `O=C(Cc1cccc(Oc2ccccc2)c1)N[C@H](CN1CCCC1)[C@H](O)c1ccc2c(c1)OCCO2` [Compound 86, N-((1R,2R)-1-(2,3-dihydrobenzo[b][1,4]dioxin-6-yl)-1-hydroxy-3-(pyrrolidin-1-yl)propan-2-yl)-2-(3-phenoxyphenyl)acetamide], the IC50 is at most 100 nM.

Turning to `O=C(COc1ccc(Cl)c(Cl)c1)N[C@H](CN1CCCC1)[C@H](O)c1ccc2c(c1)OCCO2` [Compound 87, 2-(3,4-dichlorophenoxy)-N-((1R,2R)-1-(2,3-dihydrobenzo[β][1,4]dioxin-6-yl)-1-hydroxy-3-(pyrrolidin-1-yl)propan-2-yl)acetamide], the IC50 was at most 100 nM.

Consider `O=C(N[C@H](CN1CCCC1)[C@H](O)c1ccc2c(c1)OCCO2)c1cc(-c2cccs2)on1` [Compound 90, N-((1R,2R)-1-(2,3-dihydrobenzo[β][1,4]dioxin-6-yl)-1-hydroxy-3-(pyrrolidin-1-yl)propan-2-yl)-5-(thiophen-2-yl)isoxazole-3-carboxamide], for which the IC50 was in the range of 100 to 1000 nM.

Turning to `COc1ccc(CCC(=O)N[C@H](CN2CCCC2)[C@H](O)c2ccc3c(c2)OCCO3)cc1Cl` [Compound 92, 3-(3-chloro-4-methoxyphenyl)-N-((1R,2R)-1-(2,3-dihydrobenzo[β][1,4]dioxin-6-yl)-1-hydroxy-3-(pyrrolidin-1-yl)propan-2-yl)propanamide], the IC50 is at most 100 nM.

In the case of `O=C(CCc1ccc(C(F)(F)F)cc1)N[C@H](CN1CCCC1)[C@H](O)c1ccc2c(c1)OCCO2` [Compound 96, N-((1R,2R)-1-(2,3-dihydrobenzo[β][1,4]dioxin-6-yl)-1-hydroxy-3-(pyrrolidin-1-yl)propan-2-yl)-3-(4-(trifluoromethyl)phenyl)propanamide], the IC50 was at most 100 nM.

For the compound `O=C(CCCc1nc2ccccc2s1)NC(CN1CCCC1)[C@H](O)c1ccc2c(c1)OCCO2` (stereo partly drawn) [Compound 101, 4-(benzo[d]thiazol-2-yl)-N-((1R,2R)-1-(2,3-dihydrobenzo[β][1,4]dioxin-6-yl)-1-hydroxy-3-(pyrrolidin-1-yl)propan-2-yl)butanamide], the IC50 is at most 100 nM.

Regarding `O=C(CCCCCNS(=O)(=O)c1ccc2c(c1)OCCO2)N[C@H](CN1CCCC1)[C@H](O)c1ccc2c(c1)OCCO2` [Compound 102, N-((1R,2R)-1-(2,3-dihydrobenzo[β][1,4]dioxin-6-yl)-1-hydroxy-3-(pyrrolidin-1-yl)propan-2-yl)-6-(2,3-dihydrobenzo[β][1,4]dioxine-6-sulfonamido)hexanamide], the IC50 lay within 1000 to 3000 nM.

`O=C(Cc1ccc(OC(F)(F)F)cc1)N[C@H](CN1CCCC1)[C@H](O)c1ccc2c(c1)OCCO2` [Compound 103, N-((1R,2R)-1-(2,3-dihydrobenzo[β][1,4]dioxin-6-yl)-1-hydroxy-3-(pyrrolidin-1-yl)propan-2-yl)-2-(4-(trifluoromethoxy)phenyl)acetamide]: the IC50 was at most 100 nM.

For `O=C(CCCCNC(=O)c1ccccc1)N[C@H](CN1CCCC1)[C@H](O)c1ccc2c(c1)OCCO2` [Compound 104, N-(5-((1R,2R)-1-(2,3-dihydrobenzo[β][1,4]dioxin-6-yl)-1-hydroxy-3-(pyrrolidin-1-yl)propan-2-ylamino)-5-oxopentyl)benzamide], the IC50 fell in the range of 100 to 1000 nM.

For the compound `O=C(CCCC(=O)c1ccccc1)N[C@H](CN1CCCC1)[C@H](O)c1ccc2c(c1)OCCO2` [Compound 113, N-((1R,2R)-1-(2,3-dihydrobenzo[β][1,4]dioxin-6-yl)-1-hydroxy-3-(pyrrolidin-1-yl)propan-2-yl)-5-oxo-5-phenylpentanamide], the IC50 lay in the range of 100 to 1000 nM.

With `CCOc1ccc(C(=O)CCC(=O)N[C@H](CN2CCCC2)[C@H](O)c2ccc3c(c2)OCCO3)cc1` [Compound 127, N-((1R,2R)-1-(2,3-dihydrobenzo[b][1,4]dioxin-6-yl)-1-hydroxy-3-(pyrrolidin-1-yl)propan-2-yl)-4-(4-ethoxyphenyl)-4-oxobutanamide], the IC50 fell in the range of 100 to 1000 nM.

Take `Cc1nc(-c2ccc(NC(=O)N[C@H](CN3CCCC3)[C@H](O)c3ccc4c(c3)OCCO4)cc2)cs1` [Compound 133, 1-((1R,2R)-1-(2,3-dihydrobenzo[β][1,4]dioxin-6-yl)-1-hydroxy-3-(pyrrolidin-1-yl)propan-2-yl)-3-(4-(2-methylthiazol-4-yl)phenyl)urea]: the IC50 lay within 3000 to 10000 nM.

In the case of `COc1c(C)cc(C(=O)CCCCC(=O)N[C@H](CN2CCCC2)[C@H](O)c2ccc3c(c2)OCCO3)cc1C` [Compound 140, N-((1R,2R)-1-(2,3-dihydrobenzo[β][1,4]dioxin-6-yl)-1-hydroxy-3-(pyrrolidin-1-yl)propan-2-yl)-6-(4-methoxy-3,5-dimethylphenyl)-6-oxohexanamide], the IC50 is at most 100 nM.
